The values that follow come from ChEMBL document CHEMBL3621173, “Evaluation of functional groups as acetyl-lysine mimetics for BET bromodomain inhibition” (Medchemcomm, 2014).

Active and inactive are the calls of the source. Where only a bound is given, the exact number is not on record here.

Series [1] has as its target T1, Bromodomain-containing protein 3 (Homo sapiens, UniProt Q15059). The experiment in a line: Inhibition of BRD3 (D1) (unknown origin) at 5 uM incubated for 30 mins using histone H4 peptide (1-21) K5/8/12/16Ac-biotin by alpha screen assay.
Target sequence in this assay (Q15059 2-726 limits assumed): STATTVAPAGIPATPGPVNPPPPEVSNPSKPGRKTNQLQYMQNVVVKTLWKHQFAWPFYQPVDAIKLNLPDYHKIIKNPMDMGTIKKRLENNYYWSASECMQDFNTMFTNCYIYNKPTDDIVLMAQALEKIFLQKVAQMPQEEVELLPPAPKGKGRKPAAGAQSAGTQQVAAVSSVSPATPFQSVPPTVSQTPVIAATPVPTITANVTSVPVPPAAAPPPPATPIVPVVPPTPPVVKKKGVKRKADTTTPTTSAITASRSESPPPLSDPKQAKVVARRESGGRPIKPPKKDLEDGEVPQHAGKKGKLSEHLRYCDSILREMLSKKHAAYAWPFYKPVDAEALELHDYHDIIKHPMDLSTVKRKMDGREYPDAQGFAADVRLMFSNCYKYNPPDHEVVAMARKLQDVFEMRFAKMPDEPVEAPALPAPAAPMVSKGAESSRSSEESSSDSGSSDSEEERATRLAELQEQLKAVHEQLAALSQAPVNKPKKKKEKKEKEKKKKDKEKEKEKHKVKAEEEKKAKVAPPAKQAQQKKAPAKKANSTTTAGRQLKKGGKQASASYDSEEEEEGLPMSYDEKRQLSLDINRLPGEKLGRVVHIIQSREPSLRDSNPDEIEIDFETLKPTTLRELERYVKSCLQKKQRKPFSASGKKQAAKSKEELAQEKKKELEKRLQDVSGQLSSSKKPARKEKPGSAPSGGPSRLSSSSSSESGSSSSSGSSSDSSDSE
The target of series [2] is T2, Bromodomain-containing protein 4 (Homo sapiens, UniProt O60885). Put plainly: Inhibition of BRD4 (D1) (unknown origin) at 5 uM incubated for 30 mins using histone H4 peptide (1-21) K5/8/12/16Ac-biotin by alpha screen assay.
Series [3] has as its target Bromodomain-containing protein 2 (Homo sapiens) (UniProt P25440). Put plainly: Inhibition of BRD2 (D1) (unknown origin) at 5 uM incubated for 30 mins using histone H4 peptide (1-21) K5/8/12/16Ac-biotin by alpha screen assay.
A short description of series [4]: Intrinsic clearance in human liver microsomes. It is filed as ADME. Particulars: read-out: CLH. For orientation: Liver microsomes are a subcellular fraction often used to study metabolism.
Series [5] is described as follows: Intrinsic clearance in mouse liver microsomes. Particulars: read-out: CLH. Format: ADME.
Series [6] is described as follows: Intrinsic clearance in rat liver microsomes. Particulars: read-out: CLH. Format: ADME.
A short description of series [7]: Degradation half-life in mouse liver microsomes. Format: ADME.
Series [8] is described as follows: Degradation half-life in rat liver microsomes. Format: ADME.
Series [9] can be described thus: Degradation half-life in human liver microsomes. It is filed as ADME.
Series [10] has as its target T2, Bromodomain-containing protein 4. Put plainly: Inhibition of BRD4 (D1) (unknown origin) incubated for 30 mins using histone H4 peptide (1-21) K5/8/12/16Ac-biotin by alpha screen assay. A general note: In Alpha technology, singlet oxygen from a donor bead excites a nearby acceptor bead.
Series [11] addresses T1, Bromodomain-containing protein 3. The experiment in a line: Inhibition of BRD3 (D1) (unknown origin) incubated for 30 mins using histone H4 peptide (1-21) K5/8/12/16Ac-biotin by alpha screen assay.
Target sequence in this assay (Q15059 whole entry): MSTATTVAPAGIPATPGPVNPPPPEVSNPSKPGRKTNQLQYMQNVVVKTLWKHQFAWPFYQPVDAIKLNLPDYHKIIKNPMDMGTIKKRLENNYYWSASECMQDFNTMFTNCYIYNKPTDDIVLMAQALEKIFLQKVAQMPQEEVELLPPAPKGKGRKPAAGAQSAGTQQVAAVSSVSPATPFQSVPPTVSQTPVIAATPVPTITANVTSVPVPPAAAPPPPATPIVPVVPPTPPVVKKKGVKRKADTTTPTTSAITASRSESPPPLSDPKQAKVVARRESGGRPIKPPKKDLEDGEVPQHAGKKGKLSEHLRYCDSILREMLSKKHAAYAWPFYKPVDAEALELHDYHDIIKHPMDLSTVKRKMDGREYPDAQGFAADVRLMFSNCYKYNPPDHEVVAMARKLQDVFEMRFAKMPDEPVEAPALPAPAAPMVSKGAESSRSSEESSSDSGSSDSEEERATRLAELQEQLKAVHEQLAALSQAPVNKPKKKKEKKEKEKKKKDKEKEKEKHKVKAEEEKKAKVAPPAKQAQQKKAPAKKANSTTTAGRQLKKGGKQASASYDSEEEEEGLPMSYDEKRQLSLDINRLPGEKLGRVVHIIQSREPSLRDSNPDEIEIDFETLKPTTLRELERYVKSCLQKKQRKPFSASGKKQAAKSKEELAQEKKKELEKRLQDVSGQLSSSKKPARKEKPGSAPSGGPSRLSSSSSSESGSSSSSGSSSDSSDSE

Sequence of Bromodomain-containing protein 2 (Homo sapiens) (P25440 whole entry, looked up): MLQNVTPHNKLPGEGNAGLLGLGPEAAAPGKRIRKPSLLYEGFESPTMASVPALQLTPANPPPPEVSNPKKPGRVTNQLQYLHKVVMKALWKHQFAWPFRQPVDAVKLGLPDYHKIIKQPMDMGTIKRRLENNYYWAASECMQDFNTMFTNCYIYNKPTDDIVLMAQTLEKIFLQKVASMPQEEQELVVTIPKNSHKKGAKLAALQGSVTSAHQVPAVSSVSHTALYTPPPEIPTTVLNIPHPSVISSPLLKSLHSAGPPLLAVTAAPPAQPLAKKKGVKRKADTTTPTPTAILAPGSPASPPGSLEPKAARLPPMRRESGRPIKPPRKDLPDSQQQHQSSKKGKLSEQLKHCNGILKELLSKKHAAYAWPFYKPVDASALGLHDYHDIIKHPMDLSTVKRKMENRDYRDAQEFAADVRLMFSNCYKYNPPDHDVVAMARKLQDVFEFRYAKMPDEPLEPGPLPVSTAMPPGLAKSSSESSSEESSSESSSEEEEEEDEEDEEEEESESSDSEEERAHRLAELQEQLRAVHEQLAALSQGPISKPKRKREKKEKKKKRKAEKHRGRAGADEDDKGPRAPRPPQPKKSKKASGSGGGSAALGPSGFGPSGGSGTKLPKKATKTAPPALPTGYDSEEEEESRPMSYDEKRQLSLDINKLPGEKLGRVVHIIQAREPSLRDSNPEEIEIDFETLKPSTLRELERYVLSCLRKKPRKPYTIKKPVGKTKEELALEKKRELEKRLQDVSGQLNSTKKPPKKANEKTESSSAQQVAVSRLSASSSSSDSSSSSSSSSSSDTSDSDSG

For the compound `COc1ccc(-c2c(C)nn(C)c2C)cc1S(=O)(=O)NC1CCCC1`, the inhibition entry in series [1], in [2] and in [3] was “inactive” in each case.
The half-life is the time needed for the level to fall by half in the phase considered. A higher half-life goes with slow loss. Turning to `Cc1sc2c(c1C)C(c1ccc(Cl)cc1)=N[C@@H](CC(=O)OC(C)(C)C)c1nnc(C)n1-2`, the values for the microsomal CLint in [4], in [5] and in series [6] were 136 µL/min/mg, 166 µL/min/mg and 129 µL/min/mg, respectively. This compound also yielded a half-life in series [7] of 0.117 h.
Turning to `COc1ccc(-c2ccc(N)nc2C)cc1S(=O)(=O)NC1CCCC1`, the inhibition entry in series [1], in series [2] and in [3] was “Active” in each case.
As to `COc1ccc(-c2ccncc2)cc1S(=O)(=O)NC1CCCC1`, the inhibition entry in series [1], in series [2] and in series [3] was “inactive” throughout.
For the compound `CC(=O)NCc1ccc(C)c(S(=O)(=O)NC2CCCC2)c1`, the inhibition entry in series [1], in series [2] and in series [3] was “inactive” in each case.
For `Cc1ccc(-c2c(C)noc2C)cc1S(=O)(=O)NC1CCCC1`, the half-life in series [8] was found to be 0.0333 h; in [7], 0.0667 h; in series [9] it was 0.117 h. Also, the inhibition result in series [1], in series [2] and in [3] was “Active” in each case. Further, the figures for the microsomal CLint in series [4], in [5] and in series [6] were 246 µL/min/mg, 461 µL/min/mg and 711 µL/min/mg, respectively.
Turning to `COc1ccc(-c2cn[nH]c2)cc1S(=O)(=O)NC1CCCC1`, the inhibition entry in [1], in series [2] and in series [3] was “inactive” throughout.
Regarding `COc1ccc(-c2cc(N)ccc2C)cc1S(=O)(=O)NC1CCCC1`, the inhibition result in series [1], in series [2] and in series [3] was “inactive” each time.
Consider `COc1ccc(-c2cn(C)nn2)cc1S(=O)(=O)NC1CCCC1`, for which the inhibition entry in [1], in series [2] and in series [3] was “inactive” throughout.
As to `COc1ccc(-c2cc[n+]([O-])cc2)cc1S(=O)(=O)NC1CCCC1`, the inhibition entry in series [1], in [2] and in [3] was “inactive” throughout.
`COc1ccc(-c2ccc(N)cc2C)cc1S(=O)(=O)NC1CCCC1`: the inhibition entry in [1], in series [2] and in [3] was “inactive” each time.
Take `Cc1nc(-c2ccc(C)c(S(=O)(=O)NC3CCCC3)c2)no1`: the inhibition entry in series [1], in series [2] and in series [3] was “inactive” each time.
The IC50 is the concentration that gives 50% inhibition. A high value points to lower potency. As for `Cc1ccc(-n2c(C)nnc2C)cc1S(=O)(=O)NC1CCCC1`, the IC50 in series [10] and in series [11] was at least 10 µM each time. For the same compound, the half-life in series [8] turned out to be 1.78 h; in [7], 1.42 h; in series [9] it was 2.88 h. Moreover, the inhibition result in [1], in [2] and in series [3] was “inactive” throughout. In addition, the microsomal CLint stood at 10 µL/min/mg in [4], 20 µL/min/mg in [5] and 16 µL/min/mg in [6].
Regarding `COc1ccc(-c2ccc(NC(C)=O)cc2)cc1S(=O)(=O)NC1CCCC1`, the inhibition result in series [1], in series [2] and in [3] was “inactive” throughout.
With `COc1ccc(-c2c(C)n[nH]c2C)cc1S(=O)(=O)NC1CCCC1`, the values for the IC50 in series [10] and in series [11] were 2.89 µM and 1.32 µM, respectively. Besides, the inhibition result in series [1], in series [2] and in [3] was “Active” throughout.
For the compound `COc1ccc(-c2ccccc2NS(C)(=O)=O)cc1S(=O)(=O)NC1CCCC1`, the inhibition result in series [1], in [2] and in series [3] was “inactive” throughout.
Consider `COc1ccc(-c2ccc(N)[n+]([O-])c2C)cc1S(=O)(=O)NC1CCCC1`, for which the inhibition entry in [1] and in series [2] was “Active” each time.
As for `COc1ccc(-c2ccsc2)cc1S(=O)(=O)NC1CCCC1`, the inhibition result in series [1], in series [2] and in series [3] was “inactive” throughout.
`COc1cc2c(cc1-c1c(C)noc1C)ncc1[nH]c(=O)n([C@H](C)c3ccccn3)c12`: the half-life in series [8] is 3.45 h; in series [7], above 4.12 h; in series [9] it was 3.9 h. Moreover, the microsomal CLint was 7 µL/min/mg in series [4], below 7 µL/min/mg in series [5] and 8 µL/min/mg in series [6].
As for `Cc1ccc(-n2cnnc2C)cc1S(=O)(=O)NC1CCCC1`, the IC50 in [10] and in series [11] was at least 10 µM each time. Besides, the inhibition entry in [1], in series [2] and in series [3] was “inactive” throughout.
`COc1ccc(-c2c(C)noc2C)cc1S(=O)(=O)NC1CCCC1`: the IC50 came to 1.2 µM in [10] and 0.2 µM in [11]. In addition, the inhibition entry in series [1], in [2] and in series [3] was “Active” each time.
In the case of `COc1ccc(-c2ccc(N)nc2)cc1S(=O)(=O)NC1CCCC1`, the inhibition result in series [1], in series [2] and in [3] was “inactive” each time.
For `COc1ccc(-c2ccsc2C)cc1S(=O)(=O)NC1CCCC1`, the inhibition result in series [1], in series [2] and in series [3] was “inactive” throughout.
In the case of `COc1ccc(-c2ccnn2C)cc1S(=O)(=O)NC1CCCC1`, the 50% inhibitory concentration (IC50) in series [10] worked out at 10.1 µM; in series [11] it was 1.71 µM. In addition, the inhibition entry in series [1], in series [2] and in series [3] was “Active” throughout.
As for `COc1ccc(-c2cnc(N)nc2)cc1S(=O)(=O)NC1CCCC1`, the inhibition result in [1], in [2] and in series [3] was “inactive” each time.
As for `CC(=O)Nc1ccc(C)c(S(=O)(=O)NC2CCCC2)c1`, the inhibition result in [1], in series [2] and in series [3] was “inactive” each time.
For `COc1ccc(-c2cccc(NC(C)=O)c2)cc1S(=O)(=O)NC1CCCC1`, the inhibition result in series [1], in series [2] and in series [3] was “inactive” throughout.
As for `COc1ccc(-c2cccc(N)c2C)cc1S(=O)(=O)NC1CCCC1`, the inhibition result in series [1], in series [2] and in series [3] was “inactive” each time.
As for `COc1ccc(-c2cnn(C)n2)cc1S(=O)(=O)NC1CCCC1`, the IC50 is 4 µM in series [10] and 10 µM in series [11]. The inhibition result in series [2] is “Active”.
On to `Cc1ccc(-c2nnn(C)n2)cc1S(=O)(=O)NC1CCCC1`, for which the inhibition entry in series [1], in series [2] and in series [3] was “inactive” throughout.
Take `COc1ccc(-c2cccnc2)cc1S(=O)(=O)NC1CCCC1`: the inhibition result in series [1], in series [2] and in [3] was “inactive” each time.
Regarding `Cc1ccc(NS(C)(=O)=O)cc1S(=O)(=O)NC1CCCC1`, the inhibition entry in series [1], in [2] and in series [3] was “inactive” each time.
`Cc1ccc(-c2nnnn2C)cc1S(=O)(=O)NC1CCCC1`: the inhibition entry in [1], in series [2] and in series [3] was “inactive” in each case.
